Patent publication US5268281A, “Cyclic FR-900520 microbial biotransformation agent” (Merck & Co., Inc., priority 1992, dated 1993)
Entries after “also recorded” stand apart in the source; their conditions may differ.

Experiments:
[1] = tested on: mouse T lymphocytes (Splenic T-cells); assay: T-Cell Proliferation Assay: inhibition of tritiated thymidine uptake in splenic T-cells stimulated with ionomycin + PMA; type: cell-based, mouse (C57Bl/6)
Experimental: The principle of this assay is to measure the proliferation of mouse T lymphocytes stimulated with the combination of ionomycin plus PMA.
Cells were pelleted by centrifugation at 1500 rpm for 8 minutes. Contaminating red cells were removed by treating the pellet with ammonium chloride lysing buffer (GIBCO) for 2 minutes at 4° C. Cold medium was added and cells were again centrifuged at 1500 rpm for 8 minutes. T lymphocytes were then isolated by separation of the cell suspension on nylon wool columns as follows: Nylon wool columns were prepared by packing approximately 4 grams of washed and dried nylon wool into 20 ml plastic syringes. The columns were sterilized by autoclaving at 250° F. for 30 minutes. Nylon wool columns were wetted with warm (37° C.) culture medium and rinsed with the same medium. Washed spleen cells resuspended in warm medium were slowly applied to the nylon wool. The columns were then incubated in an upright position at 37° C. for 1 hour. Non-adherent T lymphocytes were eluted from the columns with warm culture medium and the cell suspensions were spun as above.
The cell suspension was immediately distributed into 96 well flat-bottom microculture plates (Costar) at 200 μl/well. […] The proliferation of T lymphocytes was assessed by measurement of tritiated thymidine incorporation. After 44 hours of culturing, the cells were pulse-labelled with 2 μCi/well of tritiated thymidine (NEN, Cambridge, Mass.). After another 4 hours of incubation, cultures were harvested on glass fiber filters using a multiple sample harvester. Radioactivity of filter discs corresponding to individual wells was measured by standard liquid scintillation counting methods (Betacounter). Mean counts per minute of replicate wells were calculated and the results expressed as percent inhibition of tritiated thymidine uptake (proliferation) as follows: [formula]

[2] = Solubility (physical characteristics); type: physicochemical; conditions: in methanol
[3] = EPO Publication No. 0184162; cited from earlier work

Structure (SMILES) | reversal of inhibition of T-cell proliferation by addition of IL2 ([1]; 50 units/ml recombinant IL2 at the initiation of culture) | FK-506 immunosuppressant activity / immunosuppressive activity in T-cell proliferation assay ([1]; ionomycin plus PMA, result in words) | Solubility [2] | inhibition at 0.01 µg/mL ([1]; Mus musculus, T-cell, 48 h, read-out: inhibition (Standard)) [%] | effectiveness relative to cyclosporin (reputed) [3] [times]
CC[C@@H]1C=C2COC1(O)C[C@H](O)[C@@H](C)[C@@H](/C(C)=C/[C@@H]1CC[C@@H](O)[C@H](OC)C1)OC(=O)[C@@H]1CCCCN1C(=O)C(=O)[C@]1(O)O[C@H]([C@@H](OC)C[C@@H](C)C2)[C@@H](OC)C[C@H]1C [Compound I] | reversed | positive inhibition of T-cell activation; also recorded: positive immunosuppressive activity | Solubility in methanol |  | 
C=CC[C@@H]1/C=C(\C)C[C@H](C)C[C@H](OC)[C@H]2O[C@@](O)(C(=O)C(=O)N3CCCC[C@H]3C(=O)O[C@H](/C(C)=C/[C@@H]3CC[C@@H](O)[C@H](OC)C3)[C@H](C)[C@@H](O)CC1=O)[C@H](C)C[C@@H]2OC [FR900506, reference compound] |  |  |  | 99 | 100
